Experiments:
BxPC3 cells = assay: MTT cytotoxicity / cell viability assay, BxPC3; type: cell-based; details: Homo sapiens, BXPC-3, 72 hours post-treatment, read-out: IC50 values in specified pancreatic cancer cell line
Method: (§1) Four human PDAC cell lines were used in this study, including MIA-PaCa2, Panc-1, AsPC1, and BxPC3, in which the MIA-PaCa2, Panc-1 and AsPC1 comprises a KRAS mutation (i.e., KRAS mutant cell lines), and the BxPC3 has a wild-type KRAS gene (see, for example, Wen-Hsuan Chang et al., Cancer Lett. (2021), 517: 66-77; and Radu Pirlog et al., J Clin Invest. (2022), 132(14): e161454). The MIA-PaCa2 cells were cultured in RPMI1640 medium containing 10% fetal bovine serum (FBS) and 1% penicillin/streptomycin. The AsPC1, BxPC3 and Panc-1 cells were cultured in DMEM high glucose medium supplemented with 10% FBS and 1% penicillin/streptomycin.
(§2) Cytotoxicity and cell proliferation were determined by using 3-(4,5-dimethylthiazol-2-yl)-2,5-diphenyltetrazolium bromide (MTT) assay. Specifically, the MIA-PaCa2 and Panc-1 were seeded in a 96-well plate (5×10^3 cells/well). […] The resulting formazan crystals were dissolved using dimethyl sulfoxide (DMSO), and the absorbance was measured at 495 nm using a microplate reader. The cell proliferation ability was quantified as the optical density (OD) value. The cytotoxicity induced by the treatments was determined by calculating the percentage of viable cells (dividing the optical density of the drug-treated samples by that of the control samples). […]

Panc-1 cells = assay: MTT cytotoxicity / cell viability assay, Panc-1; type: cell-based; details: Homo sapiens, 72 hours post-treatment, read-out: IC50 values in specified pancreatic cancer cell line
Method: as §1, §2

MIA-PaCa2 cells = assay: MTT cytotoxicity / cell viability assay, MIA-PaCa2; type: cell-based; details: Homo sapiens, MIA PaCa-2, 72 hours post-treatment, read-out: IC50 values in specified pancreatic cancer cell line
Method: as §1, §2

AsPC1 cells = assay: MTT cytotoxicity / cell viability assay, AsPC1; type: cell-based; details: Homo sapiens, 72 hours post-treatment, read-out: IC50 values in specified pancreatic cancer cell line
Method: as §1, §2

[1] = system: MIA-PaCa2 subcutaneous tumor; assay: Subcutaneous tumor model; type: in vivo, NOD-SCID male mice; details: oral, five times per week for three weeks; mivebresib 1 mg/Kg, rucaparib 10 mg/Kg; FIG. 2
Method: The MIA-PaCa2 cells (2×10^6) were suspended in 10 μL phosphate buffered saline (PBS), and then subcutaneously injected to NOD-SCID male mice (6-8 weeks old). After 14 days (the tumor size was about 100-150 mm^3), PBS, mivebresib (1 mg/Kg), rucaparib (10 mg/Kg), or the combination of mivebresib and rucaparib (1 mg/Kg of mivebresib plus 10 mg/Kg of rucaparib) was orally administered to the mice five times per week, for three consecutive weeks. The tumor size was measured using caliper every 2-3 days, until the mice met humane endpoint criteria and were euthanized.
Two tumor models, including subcutaneous and orthotropic tumor models, were used in the example to evaluate the anti-tumor effect of mivebresib and rucaparib on pancreatic cancer. As described in “Materials and Methods”, the tumor-bearing mice were respectively administered with PBS, mivebresib, rucaparib, and the combination of mivebresib and rucaparib. The tumor sizes were monitored by caliper and IVIS® imaging system. The results were respectively depicted in FIG. 2 (subcutaneous tumor model) and FIG. 3 (orthotropic tumor model).

pancreatic cancer = assay: Overall survival of pancreatic cancer patients with neoadjuvant chemotherapy; type: in vivo, human; details: patients with cisplatin treatment (without: 18.96 months); data not shown
Method: Whether neoadjuvant chemotherapy (a chemotherapy that a cancer patient receives before the primary course of surgical treatment) would affect the overall survival of cancer patients was determined in the example. According to the results, the overall survivals of patient with or without cisplatin treatment were respectively 26.36 and 18.96 months (data not shown). Then, the patients receiving the platinum-based therapy were further divided into responder group and non-responder group.

## CCS(=O)(=O)Nc1ccc(Oc2ccc(F)cc2F)c(-c2cn(C)c(=O)c3[nH]ccc23)c1 [Mivebresib, mivebresib]
BxPC3 cells
  IC50: 273 nM
Panc-1 cells
  IC50: 1410 nM
MIA-PaCa2 cells
  IC50: 260 nM
AsPC1 cells
  IC50: 191 nM
[1]
  tumor growth (tumor size by caliper): inhibited tumor growth

## CNCc1ccc(-c2[nH]c3cc(F)cc4c3c2CCNC4=O)cc1 [Rucaparib, rucaparib]
BxPC3 cells
  IC50: 2510 nM
Panc-1 cells
  IC50: 1980 nM
MIA-PaCa2 cells
  IC50: 2440 nM
AsPC1 cells
  IC50: 2360 nM
[1]
  tumor growth (tumor size by caliper): inhibited tumor growth

## N.N.[Cl][Pt][Cl] [cisplatin]
Pancreatic cancer
  overall survival: 26.36 months

Reference: patent US20250049811A1, “METHODS OF TREATING PANCREATIC CANCER BY USING BET INHIBITOR AND PARP INHIBITOR” (NATIONAL CHENG KUNG UNIVERSITY, priority 2023, published 2025)
